Reference: US20260034051A1, “STABLE INJECTABLE CANNABIDIOL FORMULATIONS” (CARDIOL THERAPEUTICS INC., priority 2022, published 2026)

Assay: Solubility of cannabidiol in alkyl esters of octanoic acid
Assay type: physicochemical
Settings: in methyl octanoate and/or ethyl octanoate
Experimental: The cannabidiol can be present in an amount of from about 100 mg/mL. The cannabidiol can also be present in an amount up to about 150 mg/mL, 200 mg/ml, 250 mg/mL, 300 mg/mL, or 350 mg/mL, with higher concentrations of cannabidiol being preferred to reduce injection volume and promote ease of administration while reducing patient discomfort. The identity of ingredients and their amounts in the solvent system will determine the actual amount of cannabidiol that can be fully dissolved. […] Therefore, the higher the amount of alkyl ester of fatty acid that is present, the higher the amount of cannabidiol that can be dissolved.

C=C(C)[C@@H]1CCC(C)=C[C@H]1c1c(O)cc(CCCCC)cc1O [cannabidiol, Cannabidiol]
amount of cannabidiol that can be dissolved: at least 750 mg/mL
